The values that follow come from patent US4593090A, “Novel nitrosourea compounds, method for preparing same, and pharmaceutical composition containing same” (Gogo Kimura, priority 1981, dated 1986).

The nature of data set [1]: Diuretic activity, acute sodium loaded mouse screening test. Particulars: 50 mg/kg oral in 1% saline; for Cl^- / K^+ / Na^+: urine. The data set is classed as in vivo, male mice. The procedure:
The diuretic activity of the compounds of this invention was assayed by the diuresis screening test referred to as "acute sodium loaded mouse". This test was carried out by the following method.
The acute sodium loaded mouse screening test was carried out by using a 10-membered group of male mice (each weighing 18 to 24 g). Test compounds were incorporated in 1% saline (NaCl) solution and orally administered in a volume of 10 ml/kg. The mice were placed in metabolic cages. Each treated group consisted of 10-members. Five members were placed in one cage. Tests were conducted by oral administrations of (A) 1% saline (NaCl) solution to the control group and (B) 1% saline (NaCl) solution containing a test compound according to this invention.
The determination was carried out for sodium, potassium, and chlorine in each pooled urine sample. The determination of sodium and potassium was carried out by flame photometer. Chlorine was determined by chloride analysis apparatus. The analytical values of sodium, potassium, and chlorine were shown with an average mg equivalent (m Eq)/Kg/5 hours, and the diuretic activity was shown with an average urine volume (ml)/Kg/5 hours.

The test system of the next data set is Ehrlich acites carcinoma. Nature of the data set: Growth-inhibiting effect against Ehrlich acites carcinoma. Format: in vivo, male mice. Particulars: Mus musculus, Ehrlich, 120 h, 5 days; for response vs control in vivo at 50 mg/kg: 50 mg/kg/day ip; for response vs control in vivo at 200 mg/kg: 200 mg/kg/day ip; for response vs control in vivo at 25 mg/kg: 25 mg/kg/day ip; for response vs control in vivo at 100 mg/kg: 100 mg/kg/day ip. An outline of the steps:
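Male mice (groups of 6) implanted intraperitoneally with 1×10^7 Ehrlich ascites cells; compounds in 1% Nikkol HCO-60 given i.p. once daily for 5 days starting 24 hrs post-implantation. Total packed cell volume measured at day 7; T/C% vs untreated group, scored - (100-66), + (65-41), ++ (40-11), +++ (10-0).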

Another data set concerns Leukemia L1210. Put plainly: Activity against Leukemia L1210, intraperitoneal, increase in life span of mice. Format: in vivo, female mice (BDF1 family). Particulars: for ED (maximum ILS) / ED30: Mus musculus, L1210, ip, ip once a day for 5 successive days; for ED (maximum ILS): daily dosage giving maximum increase of life span, read-out: O.D. (optimum dosage); for ED30: daily dosage increasing average survival days by 30%, read-out: ILS30; for Survivors after 60 days / Max. ILS % / Therapeutic ratio TR: ip; for Survivors after 60 days: 6-membered group; for Max. ILS %: 60-day observation, versus control; for Therapeutic ratio TR: O.D./ILS30. An outline of the steps: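 Female BDF1 mice (20 to 23 g; 6 per group) were implanted intraperitoneally with 1×10^5 L1210 cells, then dosed ip or orally once daily for 5 days starting 24 h later. Survival was followed over 60 days, and ILS% was derived from mean survival days versus untreated controls.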

The nature of data set [2]: Acute toxicity (LD50, Behrens-Karber method). The data set is classed as in vivo, ICR mice. The settings on record: mouse, in vivo, ip, mortality during 30 days. The procedure:
Test compounds, dissolved or suspended in 0.5% aqueous CMC, were each intraperitoneally administered to ICR mice in a dose of 0.1 ml per 10 g body weight. LD50 (mg/kg) value of each test compound was calculated from the mortality of mice during 30 days by the Behrens-Karber method.

Read-outs that look alike come from different tables or passages of the source.

One may read the LD50 as the dose at which mortality reaches 50%. As to `CCCCO[C@@H]1O[C@H](CN(C)C(=O)N(CCCl)N=O)[C@@H](O)[C@H](O)[C@H]1O` [Compound 4, 3-methyl-3-(n-butyl β-D-glucopyranose-6-yl)-1-(2-chloroethyl)-1-nitrosourea], in data set [1], the Urine volume is reported as 8.6 ml/kg/5 hrs, the “Cl^-” value amounted to 0.6 mEq/kg/5 hrs, the “K^+” value was 0.9 mEq/kg/5 hrs and the “Na^+” value came to 0.5 mEq/kg/5 hrs. Besides, in the data set with Ehrlich acites carcinoma (read-out: Activity), the response vs control in vivo at 50 mg/kg was 11 to 40% and the response vs control in vivo at 200 mg/kg was in the range of 0 to 10%. Also, in the data set with Ehrlich acites carcinoma (read-out: T/C %), the response vs control in vivo at 50 mg/kg was determined as 30.2% and the response vs control in vivo at 200 mg/kg is 2.3%. Further, in the data set with Leukemia L1210, the ED (maximum ILS) came out at 80 mg/kg, the ED30 was 2.7 mg/kg, the “Survivors after 60 days” value is 6/6 and the “Max. ILS %” value is reported as greater than 700%. The “Therapeutic ratio TR” value with Leukemia L1210 was found to be 29.6. This molecule also returned an LD50 at 720 h in data set [2] of 220 mg/kg.

`CCCCO[C@H]1O[C@H](CN(CCCOC)C(=O)N(CCCl)N=O)[C@@H](O)[C@H](O)[C@H]1O` [Compound 10]: in data set [1], the Urine volume is on record as 8.7 ml/kg/5 hrs, the “Cl^-” value is recorded as 0.6 mEq/kg/5 hrs, the “K^+” value is listed as 0.8 mEq/kg/5 hrs and the “Na^+” value is listed as 0.5 mEq/kg/5 hrs. Moreover, in the data set with Ehrlich acites carcinoma (read-out: Activity), the response vs control in vivo at 25 mg/kg lay within 0 to 10% and the response vs control in vivo at 100 mg/kg is 0 to 10%. In addition, in the data set on Ehrlich acites carcinoma (read-out: T/C %), the response vs control in vivo at 25 mg/kg is 0% and the response vs control in vivo at 100 mg/kg is 0%. Moreover, in the data set with Leukemia L1210, the ED (maximum ILS) stood at 150 mg/kg, the ED30 stood at 3.1 mg/kg, the “Survivors after 60 days” value is given as 6/6 and the “Max. ILS %” value was greater than 700%. In the data set with Leukemia L1210, the “Therapeutic ratio TR” value was 48.4. The same molecule registered an LD50 at 720 h in data set [2] of 480 mg/kg.

As to `COCCN(C[C@H]1O[C@H](OCC(C)C)[C@H](O)[C@@H](O)[C@@H]1O)C(=O)N(CCCl)N=O` [Compound 15, 3-(2-methoxyethyl)-3-(isobutyl α-D-glucopyranose-6-yl)-1-(2-chloroethyl)-1-nitrosourea], in data set [1], the Urine volume is recorded as 9.2 ml/kg/5 hrs, the “Cl^-” value was found to be 0.7 mEq/kg/5 hrs, the “K^+” value is 0.9 mEq/kg/5 hrs and the “Na^+” value is on record as 0.6 mEq/kg/5 hrs. Besides, in the data set with Ehrlich acites carcinoma (read-out: Activity), the response vs control in vivo at 25 mg/kg lay within 0 to 10% and the response vs control in vivo at 100 mg/kg was 0 to 10%. For the same molecule, in the data set on Ehrlich acites carcinoma (read-out: T/C %), the response vs control in vivo at 25 mg/kg came to 0% and the response vs control in vivo at 100 mg/kg came out at 0%. Also, in the data set with Leukemia L1210, the ED (maximum ILS) came out at 180 mg/kg, the ED30 amounted to 2.9 mg/kg, the “Survivors after 60 days” value is 6/6 and the “Max. ILS %” value is given as greater than 700%. Besides, in the data set on Leukemia L1210, the “Therapeutic ratio TR” value is given as 62.1. For the same molecule, in data set [2], the LD50 at 720 h came out at 570 mg/kg.

Turning to `CCOCCCN(C[C@H]1O[C@H](OC(C)CC)[C@H](O)[C@@H](O)[C@@H]1O)C(=O)N(CCCl)N=O` (stereo partly drawn) [Compound 19, 3-(3-ethoxy-n-propyl)-3-(sec-butyl α-D-glucopyranose-6-yl)-1-(2-chloroethyl)-1-nitrosourea], in data set [1], the Urine volume is 9.1 ml/kg/5 hrs, the “Cl^-” value was determined as 0.7 mEq/kg/5 hrs, the “K^+” value is recorded as 0.8 mEq/kg/5 hrs and the “Na^+” value was 0.6 mEq/kg/5 hrs. Besides, in the data set on Ehrlich acites carcinoma (read-out: Activity), the response vs control in vivo at 25 mg/kg lay in the range of 0 to 10% and the response vs control in vivo at 100 mg/kg was in the range of 0 to 10%. Besides, in the data set with Ehrlich acites carcinoma (read-out: T/C %), the response vs control in vivo at 25 mg/kg is 0% and the response vs control in vivo at 100 mg/kg stood at 0%. Besides, in the data set on Leukemia L1210, the ED (maximum ILS) was 180 mg/kg, the ED30 was 3.33 mg/kg, the “Survivors after 60 days” value was 6/6 and the “Max. ILS %” value is given as greater than 700%. The “Therapeutic ratio TR” value in the data set on Leukemia L1210 was determined as 54.0. Also, in data set [2], the LD50 at 720 h amounted to 560 mg/kg.

As to `COCCN(C[C@H]1O[C@H](OC(C)COC)[C@H](O)[C@@H](O)[C@@H]1O)C(=O)N(CCCl)N=O` (stereo partly drawn) [Compound 35, 3-(2-methoxyethyl)-3-(1-methyl-2-methoxyethyl α-D-glucopyranose-6-yl)-1-(2-chloroethyl)-1-nitrosourea], in data set [1], the Urine volume is 8.8 ml/kg/5 hrs, the “Cl^-” value came to 0.6 mEq/kg/5 hrs, the “K^+” value is on record as 0.9 mEq/kg/5 hrs and the “Na^+” value worked out at 0.5 mEq/kg/5 hrs. In the data set with Ehrlich acites carcinoma (read-out: Activity), the response vs control in vivo at 25 mg/kg fell in the range of 0 to 10% and the response vs control in vivo at 100 mg/kg lay in the range of 0 to 10%. Also, in the data set with Ehrlich acites carcinoma (read-out: T/C %), the response vs control in vivo at 25 mg/kg worked out at 0% and the response vs control in vivo at 100 mg/kg came to 0%. In the data set on Leukemia L1210, the ED (maximum ILS) came to 150 mg/kg, the ED30 is 2.23 mg/kg, the “Survivors after 60 days” value was 6/6 and the “Max. ILS %” value is greater than 700%. Moreover, in the data set with Leukemia L1210, the “Therapeutic ratio TR” value was found to be 67.3. In addition, the LD50 at 720 h in data set [2] turned out to be 470 mg/kg.

On to `CCCCO[C@H]1O[C@H](CO)[C@@H](O)[C@H](O)[C@H]1N(CCCOC)C(=O)N(CCCl)N=O` [Compound 57, 3-(3-methoxy-n-propyl)-3-(n-butyl α-D-glucopyranose-2-yl)-1-(2-chloroethyl)-1-nitrosourea], for which, in data set [1], the Urine volume came out at 9.7 ml/kg/5 hrs, the “Cl^-” value is given as 0.8 mEq/kg/5 hrs, the “K^+” value is reported as 0.9 mEq/kg/5 hrs and the “Na^+” value is 0.7 mEq/kg/5 hrs. For the same molecule, in the data set on Ehrlich acites carcinoma (read-out: Activity), the response vs control in vivo at 25 mg/kg fell in the range of 0 to 10% and the response vs control in vivo at 100 mg/kg is 0 to 10%. For the same molecule, in the data set with Ehrlich acites carcinoma (read-out: T/C %), the response vs control in vivo at 25 mg/kg amounted to 0% and the response vs control in vivo at 100 mg/kg amounted to 0%. In the data set with Leukemia L1210, the ED (maximum ILS) is 190 mg/kg, the ED30 is 5.5 mg/kg, the “Survivors after 60 days” value is listed as 3/6 and the “Max. ILS %” value is given as greater than 355%. Further, the “Therapeutic ratio TR” value in the data set with Leukemia L1210 amounted to 34.5. For the same molecule, the LD50 at 720 h in data set [2] was 570 mg/kg.

In the case of `CCOCCCN(C(=O)N(CCCl)N=O)C1C(OC2CCCCC2)OC(CO)C(O)C1O` [Compound 65, 3-(3-ethoxy-n-propyl)-3-(cyclohexyl α-D-glucopyranose-2-yl)-1-(2-chloroethyl)-1-nitrosourea], in data set [1], the Urine volume stood at 8.8 ml/kg/5 hrs, the “Cl^-” value came out at 0.7 mEq/kg/5 hrs, the “K^+” value worked out at 0.8 mEq/kg/5 hrs and the “Na^+” value was 0.6 mEq/kg/5 hrs. Also, in the data set with Ehrlich acites carcinoma (read-out: Activity), the response vs control in vivo at 25 mg/kg was 0 to 10% and the response vs control in vivo at 100 mg/kg was 0 to 10%. In the data set with Ehrlich acites carcinoma (read-out: T/C %), the response vs control in vivo at 25 mg/kg stood at 0% and the response vs control in vivo at 100 mg/kg is 0%. For the same molecule, in the data set on Leukemia L1210, the ED (maximum ILS) was found to be 200 mg/kg, the ED30 was 4.44 mg/kg, the “Survivors after 60 days” value is on record as 5/6 and the “Max. ILS %” value was greater than 620%. Besides, the “Therapeutic ratio TR” value in the data set on Leukemia L1210 came out at 45.0. In data set [2], the LD50 at 720 h worked out at 655 mg/kg.

In the case of `CC(C)CO[C@@H]1O[C@H](CN(C(=O)N(CCCl)N=O)C(C)(C)C)[C@@H](O)[C@H](O)[C@H]1O` [Compound 175, 3-tert-butyl-3-(isobutyl β-D-glucopyranose-6-yl)-1-(2-chloroethyl)-1-nitrosourea], in data set [1], the Urine volume is 9.4 ml/kg/5 hrs, the “Cl^-” value amounted to 0.8 mEq/kg/5 hrs, the “K^+” value came to 0.9 mEq/kg/5 hrs and the “Na^+” value is 0.6 mEq/kg/5 hrs. Further, in the data set on Leukemia L1210, the ED (maximum ILS) stood at 170 mg/kg, the ED30 turned out to be 3.33 mg/kg, the “Survivors after 60 days” value is given as 6/6 and the “Max. ILS %” value is reported as greater than 700%. The “Therapeutic ratio TR” value in the data set on Leukemia L1210 is reported as 51.0. This molecule yielded an LD50 at 720 h in data set [2] of 550 mg/kg.
